Measurements from patent US7713970B2, “Substituted cyclic urea derivatives” (FMC Corporation, priority 2004, dated 2010).

System: tobacco budworm (Heliothis virescens [Fabricius])
Test: surface-treated diet test against tobacco budworm
Type: in vivo
Conditions: 0.25 millimolar candidate insecticide on the surface of the diet, second instar larvae, five-day exposure; for Percent Mortality: compared to total number of insects infested; for Percent Growth Inhibition: inhibition of insect weight relative to untreated controls
Method: Candidate insecticides were evaluated for activity against the tobacco budworm (Heliothis virescens [Fabricius]) in a surface-treated diet test.
In this test one mL of molten (65-70° C.) wheat germ-based artificial diet was pipetted into each well of a four by six (24 well) multi-well plate (ID# 430345-15.5 mm dia.×17.6 mm deep; Corning Costar Corp., One Alewife Center, Cambridge, Mass. 02140). The diet was allowed to cool to ambient temperature before treatment with candidate insecticide.
For a determination of insecticidal activity, solutions of the candidate insecticides were prepared for testing using a Packard 204DT Multiprobe® Robotic System (Packard Instrument Company, 800 Research Parkway, Meriden, Conn. 06450), in which the robot first diluted a standard 50 millimolar DMSO solution of candidate insecticide with a 1:1 water/acetone solution (V/V) in a ratio of 1:7 stock solution to water/acetone. The robot subsequently pipetted 40 microliters of the so-prepared solution onto the surface of the diet in each of three wells in the 24 multi-well plate. The process was repeated with solutions of seven other candidate insecticides. Once treated, the contents of the multi-well plate were allowed to dry, leaving 0.25 millimoles of candidate insecticide on the surface of the diet, or a concentration of 0.25 millimolar. Appropriate untreated controls containing only DMSO on the diet surface were also included in this test.
For evaluations of the insecticidal activity of a candidate insecticide at varying rates of application, the test was established as described above using sub-multiples of the standard 50 millimolar DMSO solution of candidate insecticide. For example, the standard 50 millimolar solution was diluted by the robot with DMSO to give 5, 0.5, 0.05, 0.005, 0.0005 millimolar, or more dilute solutions of the candidate insecticide. In these evaluations there were six replicates of each rate of application placed on the surface of the diet in the 24 multi-well plate, for a total of four rates of application of candidate insecticide in each plate.
In each well of the test plate was placed one second instar tobacco budworm larvea, each weighing approximately five milligrams. After the larvae were placed in each well, the plate was sealed with clear polyfilm adhesive tape. The tape over each well was perforated to ensure an adequate air supply. The plates were then held in a growth chamber at 25° C. and 60% relative humidity for five days (light 14 hours/day).
After the five-day exposure period insecticidal activity for each rate of application of candidate insecticide was assessed as percent inhibition of insect weight relative to the weight of insects from untreated controls, and percent mortality when compared to the total number of insects infested.

| SMILES | Percent Mortality [%] | Percent Growth Inhibition [%] |
| --- | --- | --- |
| O=c1n(Cc2ccc(C(F)(F)F)cc2)cnn1CCCCOc1c(Cl)cc(OCC=C(Cl)Cl)cc1Cl [Compound 546] | 100 | 100 |
| O=c1n(CCCCOc2cc(Cl)c(OCC=C(Cl)Cl)c(Cl)c2)nnn1-c1cccc(Cl)c1 [Compound 661] | 100 | 100 |
| O=c1n(CCCCOc2c(Cl)cc(OCC=C(Cl)Cl)cc2Cl)cnn1-c1ccc([N+](=O)[O-])cc1 [Compound 93] | 100 | 100 |
| O=c1n(CCCCOc2c(Cl)cc(OCC=C(Cl)Cl)cc2Cl)cnn1-c1cc(F)cc(F)c1 [Compound 87] | 100 | 100 |
| Cc1cc(C)cc(-n2ncn(CCCCOc3c(Cl)cc(OCC=C(Cl)Cl)cc3Cl)c2=O)c1 [Compound 100] | 100 | 100 |
| O=c1n(CCCCOc2c(Cl)cc(OCC=C(Cl)Cl)cc2Cl)cnn1-c1ccc(C(F)(F)F)cc1 [Compound 107, 4-{4-[4-(3,3-Dichloroprop-2-enyloxy)-2,6-dichlorophenoxy]butyl}-1-[4-(trifluoromethyl)-phenyl]-1,2,4-triazolin-5-one] | 100 | 100 |
| O=c1n(CCCCOc2c(Cl)cc(OCC=C(Cl)Cl)cc2Cl)cnn1-c1ccc(I)cc1 [Compound 90] | 100 | 100 |
| O=c1n(Cc2ccc(C(F)(F)F)cc2)cnn1CCOc1c(Cl)cc(OCC=C(Cl)Cl)cc1Cl [Compound 548] | 100 | 100 |
| O=c1n(CCOc2c(Cl)cc(OCC=C(Cl)Cl)cc2Cl)nnn1Cc1ccccc1Cl [Compound 522] | 50 | 100 |
| Cc1ccc(-n2ncn(CCCCOc3c(Cl)cc(OCC=C(Cl)Cl)cc3Cl)c2=O)cc1C [Compound 99] | 100 | 100 |
| N#Cc1ccc(-n2ncn(CCCCOc3c(Cl)cc(OCC=C(Cl)Cl)cc3Cl)c2=O)cc1 [Compound 89] | 100 | 100 |
| Cc1nn(-c2ccccc2)c(=O)n1CCCCOc1c(Cl)cc(OCC=C(Cl)Cl)cc1Cl [Compound 110] | 100 | 100 |
| O=c1n(CCCOc2c(Cl)cc(OCC=C(Cl)Cl)cc2Cl)nnn1-c1cccc(Cl)c1 [Compound 309] | 100 | 100 |
| COc1cc(-n2ncc(=O)n(CCCCOc3c(Cl)cc(OCC=C(Cl)Cl)cc3Cl)c2=O)ccc1Cl [Compound 654] | 100 | 100 |
| O=c1n(CCCCOc2c(Cl)cc(OCC=C(Cl)Cl)cc2Cl)nnn1Cc1ccc(Cl)cc1Cl [Compound 517] | 100 | 100 |
| O=c1n(CCCCOc2c(Cl)cc(OCC=C(Cl)Cl)cc2Cl)nnn1-c1ccc(Cl)c(Cl)c1 [Compound 306] | 100 | 100 |
| O=c1n(CCCCOc2c(Cl)cc(OCC=C(Cl)Cl)cc2Cl)nnn1-c1cccc(C(F)(F)F)c1 [Compound 304] | 100 | 100 |
| O=c1n(CCCCOc2c(Cl)cc(OCC=C(Cl)Cl)cc2Cl)nnn1Cc1ccc(Cl)c(Cl)c1 [Compound 520] | 0 | 58 |
| O=c1n(CCCCOc2c(Cl)cc(OCC=C(Cl)Cl)cc2Cl)nnn1Cc1ccccc1 [Compound 512] | 100 | 100 |
| O=c1n(CCCCOc2c(Cl)cc(OCC=C(Cl)Cl)cc2Cl)nnn1-c1ccccc1 [Compound 307] | 100 | 100 |

| SMILES | Percent Mortality [%] | Percent Growth Inhibition [%] |
| --- | --- | --- |
| O=c1n(CCCCOc2c(Cl)cc(OCC=C(Cl)Cl)cc2Cl)nnn1Cc1cc(Cl)cc(Cl)c1 [Compound 521] | 100 | 100 |
| O=c1n(CCCCOc2c(Cl)cc(OCC=C(Cl)Cl)cc2Cl)cnn1-c1ccc(Br)cc1 [Compound 104] | 100 | 100 |
| O=c1n(CCCCOc2c(Cl)cc(OCC=C(Cl)Cl)cc2Cl)ccn1-c1ccc(Cl)cc1 [Compound 4] | 100 | 100 |
| O=c1n(CCCCOc2c(Cl)cc(OCC=C(Cl)Cl)cc2Cl)cnn1-c1cccc(Cl)c1 [Compound 75] | 100 | 100 |
| O=c1cnn(-c2cc(Cl)cc(Cl)c2)c(=O)n1CCCCOc1c(Cl)cc(OCC=C(Cl)Cl)cc1Cl [Compound 649] | 100 | 100 |
| O=c1n(CCCCOc2c(Cl)cc(OCC=C(Cl)Cl)cc2Cl)cnn1-c1ccccc1 [Compound 94] | 100 | 100 |
| CC1(C)Cc2cccc(-n3nnn(CCCCOc4c(Cl)cc(OCC=C(Cl)Cl)cc4Cl)c3=O)c2O1 [Compound 335] | 100 | 100 |
| O=c1n(CCCCOc2c(Cl)cc(OCC=C(Cl)Cl)cc2Cl)nnn1-c1ccc(Cl)cc1 [Compound 300] | 100 | 100 |
| O=c1n(CCCCOc2c(Cl)cc(OCC=C(Cl)Cl)cc2Cl)nnn1Cc1ccc(Cl)cc1 [Compound 515] | 100 | 100 |
| Cc1nn(-c2ccc(Cl)cc2F)c(=O)n1CCCCOc1c(Cl)cc(OCC=C(Cl)Cl)cc1Cl [Compound 123] | 100 | 100 |
| O=c1n(CCCCOc2c(Cl)cc(OCC=C(Cl)Cl)cc2Cl)nnn1-c1ccc(C(F)(F)F)cc1 [Compound 293] | 100 | 100 |
| O=c1n(CCCCOc2c(Cl)cc(OCC=C(Cl)Cl)cc2Cl)nnn1-c1cc(Cl)cc(Cl)c1 [Compound 299] | 100 | 100 |
| Cc1nn(-c2ccc(C(C)(C)C)cc2)c(=O)n1CCCCOc1c(Cl)cc(OCC=C(Cl)Cl)cc1Cl [Compound 125] | 100 | 100 |
| Cc1nn(-c2ccccc2F)c(=O)n1CCCCOc1c(Cl)cc(OCC=C(Cl)Cl)cc1Cl [Compound 114] | 100 | 100 |
| Cc1ccc(-n2ncn(CCCCOc3c(Cl)cc(OCC=C(Cl)Cl)cc3Cl)c2=O)cc1Cl [Compound 101] | 100 | 100 |
| O=c1cnn(-c2ccc(OC(F)F)cc2)c(=O)n1CCCCOc1c(Cl)cc(OCC=C(Cl)Cl)cc1Cl [Compound 656] | 100 | 100 |
| O=c1n(CCCOc2c(Cl)cc(OCC=C(Cl)Cl)cc2Cl)cnn1-c1ccc(C(F)(F)F)cc1 [Compound 106] | 100 | 100 |
| O=C1C(=O)N(c2ccc(Cl)cc2)C(=O)N1CCCCOc1c(Cl)cc(OCC=C(Cl)Cl)cc1Cl [Compound 613] | 100 | 100 |
| Cc1ccc(-n2ncn(CCCCOc3c(Cl)cc(OCC=C(Cl)Cl)cc3Cl)c2=O)cc1 [Compound 86] | 100 | 100 |
| Cc1nn(-c2ccc(S(=O)(=O)C(F)F)cc2)c(=O)n1CCCCOc1c(Cl)cc(OCC=C(Cl)Cl)cc1Cl [Compound 135] | 100 | 100 |
